Measurements published in patent US12011444B2, “N-substituted indole derivatives as PGE2 receptor modulators” (Idorsia Pharmaceuticals Ltd, priority 2015, dated 2024).

Legend:
PTRGER4 (EP4) = PTRGER4 (EP4) (Homo sapiens (Human), UniProt P35408); assay: hEP4 b-arrestin assay (PathHunter HEK 293 PTGER4 b-arrestin cells); type: cell-based
Summary of the method: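 Stably transfected HEK293 cells carrying EP4–ProLink and β-arrestin 2–EA (β-gal fragment complementation), pre-incubated with compound 15 min at 37 °C, then stimulated with PGE2 (20 nM final) for 120 min at 37 °C. Chemiluminescence read after 1 h detection reagent at room temperature; activity per concentration expressed as percent of DMSO control.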

PTGER2 (EP2) = PTGER2 (EP2) (Homo sapiens (Human), UniProt P43116); assay: hEP2 b-arrestin assay (PathHunter HEK 293 PTGER2 b-arrestin cells); type: cell-based
Chain of PTGER2 (EP2) (P43116 whole entry, the tested form may be a part): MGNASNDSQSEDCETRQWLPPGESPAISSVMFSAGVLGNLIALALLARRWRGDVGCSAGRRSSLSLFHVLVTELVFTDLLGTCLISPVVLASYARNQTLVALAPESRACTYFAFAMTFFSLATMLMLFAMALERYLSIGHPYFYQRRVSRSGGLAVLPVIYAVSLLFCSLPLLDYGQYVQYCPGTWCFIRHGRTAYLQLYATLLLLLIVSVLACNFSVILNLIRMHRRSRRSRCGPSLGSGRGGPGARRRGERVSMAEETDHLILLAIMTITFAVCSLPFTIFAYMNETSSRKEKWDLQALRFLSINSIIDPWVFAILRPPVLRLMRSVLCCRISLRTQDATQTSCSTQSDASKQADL
Summary of the method: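 HEK293 cells expressing ProLink-tagged EP2 and EA-fused β-arrestin 2 (enzyme fragment complementation) were seeded 24 h, pre-incubated with compound 15 min at 37 °C, then stimulated with 5 μM PGE2 (final) for 120 min.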

[1] = antagonistic activity on hEP4, mean where measured multiple times
[2] = antagonistic activity on hEP2, mean where measured multiple times
[3] = hEP4 b-arrestin assay (values without asterisk)
[4] = hEP2 b-arrestin assay (values without asterisk)

Chain of PTRGER4 (EP4) (P35408 whole entry, looked up, the tested form may be a part): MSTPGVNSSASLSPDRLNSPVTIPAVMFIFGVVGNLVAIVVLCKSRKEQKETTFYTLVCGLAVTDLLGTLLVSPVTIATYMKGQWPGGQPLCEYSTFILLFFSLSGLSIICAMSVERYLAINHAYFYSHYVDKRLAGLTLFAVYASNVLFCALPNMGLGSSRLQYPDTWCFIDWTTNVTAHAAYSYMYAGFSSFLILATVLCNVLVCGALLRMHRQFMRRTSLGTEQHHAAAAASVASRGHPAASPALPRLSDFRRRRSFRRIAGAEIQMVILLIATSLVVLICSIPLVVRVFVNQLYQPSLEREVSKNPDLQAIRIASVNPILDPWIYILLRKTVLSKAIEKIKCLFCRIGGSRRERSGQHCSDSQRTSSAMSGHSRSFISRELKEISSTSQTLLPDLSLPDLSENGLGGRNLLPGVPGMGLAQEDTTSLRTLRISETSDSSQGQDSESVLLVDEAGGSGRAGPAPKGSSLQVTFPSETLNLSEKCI

Row | IC50 (PTRGER4 (EP4); [1]) [µM] | IC50 (PTGER2 (EP2); [2]) [µM] | IC50 (PTRGER4 (EP4); [3]) [µM] | IC50 (PTGER2 (EP2); [4]) [µM] | SMILES
1 | 0.099 | 0.017 |  |  | Cc1cc(F)cc2c1cc(C)n2CCNc1cc(-c2cc(Cl)c(C(=O)O)s2)ncn1 [compound 19, 3-Chloro-5-{6-[2-(6-fluoro-2,4-dimethyl-indol-1-yl)-ethylamino]-pyrimidin-4-yl}-thiophene-2-carboxylic acid]
2 |  |  | 0.003 | 0.009 | CCOc1cc(-c2cc(NCCn3c(C#N)cc4c(OC)ccc(F)c43)ncn2)sc1C(=O)OCC(=O)N(C)C [Example 1044, 5-{6-[2-(2-Cyano-7-fluoro-4-methoxy-indol-1-yl)-ethylamino]-pyrimidin-4-yl}-3-ethoxy-thiophene-2-carboxylic acid dimethylcarbamoylmethyl ester]
3 |  |  | 0.017 | 0.005 | CCOc1nc(-c2cc(NCCn3c(C)cc4c(OC)ccc(F)c43)ncn2)sc1C(=O)O [Example 1034, 4-Ethoxy-2-{6-[2-(7-fluoro-4-methoxy-2-methyl-indol-1-yl)-ethylamino]-pyrimidin-4-yl}-thiazole-5-carboxylic acid]
4 |  |  | 0.089 | 0.04 | CCOc1cc(-c2cc(NCCn3c(C)cc4c(OC)c(F)cc(Cl)c43)ncn2)sc1C(=O)O [Example 885, 5-{6-[2-(7-Chloro-5-fluoro-4-methoxy-2-methyl-indol-1-yl)-ethylamino]-pyrimidin-4-yl}-3-ethoxy-thiophene-2-carboxylic acid]
5 |  |  | 0.013 | 0.021 | COc1ccc(F)c2c1cc(C#N)n2CCNc1cc(-c2ccc(C(=O)O)c(SC(C)C)c2)ncn1 [Example 937, 4-{6-[2-(2-Cyano-7-fluoro-4-methoxy-indol-1-yl)-ethylamino]-pyrimidin-4-yl}-2-isopropylsulfanyl-benzoic acid]
6 |  |  | 0.005 | 0.004 | CCOc1cc(-c2cc(NCCn3c(C#N)cc4c(OC)ccc(F)c43)ncn2)sc1C(=O)NS(=O)(=O)CC [Example 817, Ethanesulfonic acid (5-{6-[2-(2-cyano-7-fluoro-4-methoxy-indol-1-yl)-ethylamino]-pyrimidin-4-yl}-3-ethoxy-thiophene-2-carbonyl)-amide]
7 |  |  | 0.111 | 0.011 | CCOc1cc(-c2cc(NCCn3c(C)cc4c(OC)ccc(F)c43)ncn2)ccc1OC(C)C(=O)O (racemic) [Example 843, rac-2-(2-Ethoxy-4-{6-[2-(7-fluoro-4-methoxy-2-methyl-indol-1-yl)-ethylamino]-pyrimidin-4-yl}-phenoxy)-propionic acid]
8 | 0.875 | 0.07 |  |  | CCCSc1cc(-c2cc(NCCn3c(C)cc4c(C)c(F)cc(Cl)c43)ncn2)ccc1C(=O)O [compound 371]
9 | 0.272 | 0.054 |  |  | Cc1ccc(F)c2c1cc(C)n2CCNc1cc(-c2ccc3ccncc3c2)ncn1 [compound 357]
10 | 0.389 | 0.232 |  |  | Cc1ccc(Cl)c2c1cc(C)n2CCNc1cc(-c2ccc3[nH]c(C(=O)O)cc3c2)ncn1 [compound 201]
11 | 0.483 | 0.015 |  |  | Cc1cc2cc(F)cc(F)c2n1CCNc1cc(-c2ccc(C(=O)O)c(CC(C)C)c2)ncn1 [compound 333, 4-{6-[2-(5,7-Difluoro-2-methyl-indol-1-yl)-ethylamino]-pyrimidin-4-yl}-2-isobutyl-benzoic acid]
12 | 0.086 | 0.002 |  |  | CCNc1cc(-c2cc(NCCn3c(C)cc4c(C)cc(F)cc43)ncn2)ccc1C(=O)O [compound 244]
13 | 0.165 | 0.015 |  |  | CCCNc1cc(-c2cc(NCCn3c(C)cc4c(C)ccc(F)c43)ncn2)ccc1C(=O)O [compound 356, 4-{6-[2-(7-Fluoro-2,4-dimethyl-indol-1-yl)-ethylamino]-pyrimidin-4-yl}-2-propylamino-benzoic acid]
14 | 0.392 | 0.086 |  |  | Cc1ccc(F)c2c1cc(C)n2CCNc1cc(-c2ccc(NC(N)=O)cc2)ncn1 [compound 40, (4-{6-[2-(7-Fluoro-2,4-dimethyl-indol-1-yl)-ethylamino]-pyrimidin-4-yl}-phenyl)-urea]
15 | 0.093 | 0.078 |  |  | COc1ccc(F)c2c1cc(C)n2CCNc1cc(-c2cc(C)c(C(=O)O)c(Cl)c2)ncn1 [compound 156]
